Assay results from patent US8815881B2 (Hoffmann-La Roche Inc., priority 2010, dated 2014).

The molecules below were run against endogenous cellular BACE2 in the Ins1e rat cell line (Rattus norvegicus (Rat), UniProt Q6IE75) (assay: Assay for BACE inhibition by measuring cellular TMEM27 cleavage (ELISA of shed hTMEM27 from INS-TMEM27 cells)). Conditions: assay a): cellular TMEM27 cleavage, INS-TMEM27 cells (superscript a).
Type: cell-based
From the text: a) Assay for BACE Inhibition by Measuring Cellular TMEM27 Cleavage:
The assay uses the principle of inhibition of human TMEM27 cleavage by endogenous cellular BACE2 in the Ins1e rat cell line and shedding from the cell surface into the culture medium, followed by detection in an ELISA assay. Inhibition of BACE2 prevents the cleavage and shedding in a dose-dependent manner.
The stable cell line “INS-TMEM27” represents an INS1e-derived cell line with inducible expression (using the TetOn system) of full-length hTMEM27 in a doxycycline-dependent manner. The cells are cultured throughout the experiment in RPMI1640+Glutamax (Invitrogen) Penicillin/Streptomycin, 10% Fetal bovine serum, […], […], 100 micrograms/ml G418 and 100 microgram/ml hygromycin and are grown inadherent culture at 37° C. in a standard CO2 cell culture incubator.
INS-TMEM27 cells are seeded in 96-well plates. After 2 days in culture, BACE2 inhibitor is added in a range of concentrations as required by the assay and after a further two hours, doxycycline is added to a final concentration of 500 ng/ml. The cells are incubated for a further 46 hours and the supernatant harvested for detection of shed TMEM27.
An ELISA assay (using a pair of mouse anti-human-TMEM27 antibodies, raised against the extracellular domain of TMEM27) is used for detection of TMEM27 in the culture medium. An EC50 for BACE2 inhibition is calculated using the ELISA readout for each inhibitor concentration with standard curve-fitting software such as XLFit for the Excel spreadsheet program.

Chain of endogenous cellular BACE2 in the Ins1e rat cell line (Q6IE75 63-514): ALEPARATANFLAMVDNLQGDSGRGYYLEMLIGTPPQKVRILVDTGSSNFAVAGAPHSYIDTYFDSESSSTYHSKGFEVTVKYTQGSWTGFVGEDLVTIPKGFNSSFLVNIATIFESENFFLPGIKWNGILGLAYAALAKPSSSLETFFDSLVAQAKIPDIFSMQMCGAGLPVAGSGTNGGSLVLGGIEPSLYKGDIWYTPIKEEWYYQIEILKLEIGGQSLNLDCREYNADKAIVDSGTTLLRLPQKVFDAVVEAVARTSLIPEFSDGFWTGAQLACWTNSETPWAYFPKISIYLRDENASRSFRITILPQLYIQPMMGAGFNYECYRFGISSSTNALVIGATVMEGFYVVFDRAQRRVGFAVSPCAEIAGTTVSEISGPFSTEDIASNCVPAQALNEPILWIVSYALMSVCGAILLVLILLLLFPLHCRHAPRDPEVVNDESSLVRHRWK

SMILES	IC50 [nM]
CN1C(=O)C(C)(C)[C@@](C)(c2cc(NC(=O)[C@@](C)(O)C(F)(F)F)ccc2F)N=C1N [Example 142, (R)—N-(3-((S)-2-amino-1,4,5,5-tetramethyl-6-oxo-1,4,5,6-tetrahydropyrimidin-4-yl)-4-fluorophenyl)-3,3,3-trifluoro-2-hydroxy-2-methylpropanamide]	89
CN1C(=O)C(C)(C)[C@@](C)(c2cc(NCC3CCC3)ccc2F)N=C1N [Example 70, (S)-2-Amino-6-[5-(C-cyclobutylmethyl-amino)-2-fluoro-phenyl]-3,5,5,6-tetramethyl-5,6-dihydro-3H-pyrimidin-4-one]	16
CN1C(=O)C(C)(C)[C@@](C)(c2cc(NC(=O)C(C)(O)c3ccccc3)ccc2F)N=C1N (stereo partly drawn) [Example 139, N-[3-((S)-2-Amino-1,4,5,5-tetramethyl-6-oxo-1,4,5,6-tetrahydro-pyrimidin-4-yl)-4-fluoro-phenyl]-2-hydroxy-2-phenyl-propionamide]	31
CN1C(=O)C(C)(C)[C@@](C)(c2cc(NC3CCOc4cc(F)ccc43)ccc2F)N=C1N (stereo partly drawn) [Example 140, (S)-2-Amino-6-[2-fluoro-5-(7-fluoro-chroman-4-ylamino)-phenyl]-3,5,5,6-tetramethyl-5,6-dihydro-3H-pyrimidin-4-one]	47
CN1C(=O)C(C)(C)[C@@](C)(c2cc(NC3CCCOC3)ccc2F)N=C1N (stereo partly drawn) [Example 45, (S)-2-Amino-6-[2-fluoro-5-(tetrahydro-pyran-3-ylamino)-phenyl]-3,5,5,6-tetramethyl-5,6-dihydro-3H-pyrimidin-4-one]	11
CN1C(=O)C(C)(C)[C@@](C)(c2cc(Nc3cccc4c3OC(C)(C)C4)ccc2F)N=C1N [Example 156, (S)-2-Amino-6-(5-(2,2-dimethyl-2,3-dihydrobenzofuran-7-ylamino)-2-fluorophenyl)-3,5,5,6-tetramethyl-5,6-dihydropyrimidin-4(3H)-one]	1210
COc1cc(F)c(F)cc1Nc1ccc(F)c([C@@]2(C)N=C(N)N(C)C(=O)C2(C)C)c1 [Example 102, (S)-2-Amino-6-[5-(4,5-difluoro-2-methoxy-phenylamino)-2-fluoro-phenyl]-3,5,5,6-tetramethyl-5,6-dihydro-3H-pyrimidin-4-one]	217
CN1C(=O)C(C)(C)[C@@](C)(c2cc(NC[C@@H]3C[C@H]3c3ccccc3)ccc2F)N=C1N [Example 97, (S)-2-Amino-6-{2-fluoro-5-[((1R,2R)-2-phenyl-cyclopropylmethyl)-amino]-phenyl}-3,5,5,6-tetramethyl-5,6-dihydro-3H-pyrimidin-4-one]	242
CN1C(=O)C(C)(C)[C@@](C)(c2cc(NC3CCC(CC(=O)O)C3)ccc2F)N=C1N (stereo partly drawn) [Example 115, 2-(3-(3-((S)-2-Amino-1,4,5,5-tetramethyl-6-oxo-1,4,5,6-tetrahydropyrimidin-4-yl)-4-fluorophenylamino)cyclopentyl)acetic acid]	977
CN1C(=O)C(C)(C)[C@@](C)(c2cc(NC3CCCC3Cl)ccc2F)N=C1N (stereo partly drawn) [Example 30, (6S)-2-Amino-6-(5-(2-chlorocyclopentylamino)-2-fluorophenyl)-3,5,5,6-tetramethyl-5,6-dihydropyrimidin-4(3H)-one]	33
CN1C(=O)C(C)(C)[C@@](C)(c2cc(NC(=O)CC3CCCC3)ccc2F)N=C1N [Example 26, (S)—N-(3-(2-amino-1,4,5,5-tetramethyl-6-oxo-1,4,5,6-tetrahydropyrimidin-4-yl)-4-fluorophenyl)-2-cyclopentylacetamide]	274
CN1C(=O)C(C)(C)[C@@](C)(c2cc(NCC3(C)COC3)ccc2F)N=C1N [Example 71, (S)-2-Amino-6-{2-fluoro-5-[(3-methyl-oxetan-3-ylmethyl)-amino]-phenyl}-3,5,5,6-tetramethyl-5,6-dihydro-3H-pyrimidin-4-one]	14
CN1C(=O)C(C)(C)[C@@](C)(c2cc(NCc3ccon3)ccc2F)N=C1N [Example 86, (S)-2-Amino-6-{2-fluoro-5-[(isoxazol-3-ylmethyl)-amino]phenyl}-3,5,5,6-tetramethyl-5,6-dihydro-3H-pyrimidin-4-one]	236
CN1C(=O)C(C)(C)[C@@](C)(c2cc(NCc3nn(C(F)F)cc3Cl)ccc2F)N=C1N [Example 160, (S)-2-Amino-6-{5-[(4-chloro-1-difluoromethyl-1H-pyrazol-3-ylmethyl)-amino]-2-fluoro-phenyl}-3,5,5,6-tetramethyl-5,6-dihydro-3H-pyrimidin-4-one]	6
CN1C(=O)C[C@]2(CCc3ccc(NC(=O)C4(C(F)(F)F)CC4)cc32)N=C1N [Example 15, (S)—N-(2′-Amino-1′-methyl-6′-oxo-2,3,5′,6′-tetrahydro-1′H-spiro[indene-1,4′-pyrimidine]-6-yl)-1-(trifluoromethyl)cyclopropanecarboxamide]	7
CCOC(=O)N1CCC(Nc2ccc(F)c([C@@]3(C)N=C(N)N(C)C(=O)C3(C)C)c2)C1 (stereo partly drawn) [Example 23, 3-[3-((S)-2-Amino-1,4,5,5-tetramethyl-6-oxo-1,4,5,6-tetrahydro-pyrimidin-4-yl)-4-fluoro-phenylamino]-pyrrolidine-1-carboxylic acid ethyl ester]	7
CCNc1ccc(F)c([C@@]2(C)N=C(N)N(C)C(=O)C2(C)C)c1 [Example 91, (S)-2-Amino-6-(5-ethylamino-2-fluoro-phenyl)-3,5,5,6-tetramethyl-5,6-dihydro-3H-pyrimidin-4-one]	322
CC(=O)OC1CC2CC1CC2Nc1ccc(F)c([C@@]2(C)N=C(N)N(C)C(=O)C2(C)C)c1 (stereo partly drawn) [Example 93, Acetic acid 5-[3-((S)-2-amino-1,4,5,5-tetramethyl-6-oxo-1,4,5,6-tetrahydro-pyrimidin-4-yl)-4-fluoro-phenylamino]-bicyclo[2.2.1]hept-2-yl ester]	25
CN1C(=O)C(C)(C)[C@@](C)(c2cc(NC(=O)C3(C)COC3)ccc2F)N=C1N [Example 131]	256
CN1C(=O)C(C)(C)[C@@](C)(c2cc(Nc3ccc(C#N)cc3F)ccc2F)N=C1N [Example 152, (S)-4-(3-(2-Amino-1,4,5,5-tetramethyl-6-oxo-1,4,5,6-tetrahydropyrimidin-4-yl)-4-fluorophenylamino)-3-fluorobenzonitrile]	2
CN1C(=O)C(C)(C)[C@@](C)(c2cc(Nc3ccccn3)ccc2F)N=C1N [Example 105, (S)-2-Amino-6-(2-fluoro-5-(pyridin-2-ylamino)phenyl)-3,5,5,6-tetramethyl-5,6-dihydropyrimidin-4(3H)-one]	12
CC1OCCC1Nc1ccc(F)c([C@@]2(C)N=C(N)N(C)C(=O)C2(C)C)c1 (stereo partly drawn) [Example 34, (6S)-2-Amino-6-(2-fluoro-5-(2-methyltetrahydrofuran-3-ylamino)phenyl)-3,5,5,6-tetramethyl-5,6-dihydropyrimidin-4(3H)-one]	8
CN1C(=O)C(C)(C)[C@@](C)(c2cc(NC3CCN(c4ccc(F)cc4)C3)ccc2F)N=C1N (stereo partly drawn) [Example 31, (6S)-2-Amino-6-(2-fluoro-5-(1-(4-fluorophenyl)pyrrolidin-3-ylamino)phenyl)-3,5,5,6-tetramethyl-5,6-dihydropyrimidin-4(3H)-one]	37
CN1C(=O)C(C)(C)[C@@](C)(c2cc(NCC3CC3(F)F)ccc2F)N=C1N (stereo partly drawn) [Example 58, (S)-2-Amino-6-{5-[(2,2-difluoro-cyclopropylmethyl)-amino]-2-fluoro-phenyl}-3,5,5,6-tetramethyl-5,6-dihydro-3H-pyrimidin-4-one]	10
Cc1ncsc1CNc1ccc(F)c([C@@]2(C)N=C(N)N(C)C(=O)C2(C)C)c1 [Example 78, (S)-2-Amino-6-{2-fluoro-5-[(4-methyl-thiazol-5-ylmethyl)-amino]-phenyl}-3,5,5,6-tetramethyl-5,6-dihydro-3H-pyrimidin-4-one]	156
CC[C@H]1C(=O)N(C)C(N)=N[C@]1(C)c1cccc(NC(=O)C2(C(F)(F)F)CC2)c1 [Example 11, 1-Trifluoromethyl-cyclopropanecarboxylic acid [3-((4S,5R)-2-amino-5-ethyl-1,4-dimethyl-6-oxo-1,4,5,6-tetrahydro-pyrimidin-4-yl)-phenyl]-amide]	14
CN1C(=O)C(C)(C)[C@@](C)(c2cc(Nc3cccnc3)ccc2F)N=C1N [Example 138, (S)-2-Amino-6-(2-fluoro-5-(pyridin-3-ylamino)phenyl)-3,5,5,6-tetramethyl-5,6-dihydropyrimidin-4(3H)-one]	500
CC(Nc1ccc(F)c([C@@]2(C)N=C(N)N(C)C(=O)C2(C)C)c1)c1nc2ccccc2s1 (stereo partly drawn) [Example 127, (S)-2-Amino-6-[5-(1-benzothiazol-2-yl-ethylamino)-2-fluoro-phenyl]-3,5,5,6-tetramethyl-5,6-dihydro-3H-pyrimidin-4-one]	73
CN1C(=O)C(C)(C)[C@@](C)(c2cc(NC3CCc4cc(Cl)cnc43)ccc2F)N=C1N (stereo partly drawn) [Example 62, (6S)-2-Amino-6-(5-(3-chloro-6,7-dihydro-5H-cyclopenta[b]pyridin-7-ylamino)-2-fluorophenyl)-3,5,5,6-tetramethyl-5,6-dihydropyrimidin-4(3H)-one]	1
